Measurements as given in US6376480B1, “Vitamin D derivatives with substituents at C-25, process for their production, intermediate products and use for the production of pharmaceutical agents” (Schering Aktiengesellschaft, priority 1995, dated 2002).

How the values were obtained:
healthy male rats = test: acute hypercalcemic action after one-time subcutaneous administration; assay type: in vivo, rat; conditions: DR = test substance dose/calcitriol dose for comparable effects, serum-calcium
Description: To determine the acute hypercalcemic action of various calcitriol derivatives, the test that is described below is carried out:
The action of control (solution base), reference substance (1,25(OH)2—D3=calcitriol) and test substance is tested in each case after one-time subcutaneous administration in groups of 10 healthy male rats (140-170 g). During the testing time, the rats are kept in special cages to determine the excretion of water and mineral substances. Urine is collected in 2 fractions (0-16 hours and 16-22 hours). An oral dose of calcium (0.1 mmol of calcium in 6.5% alpha-hydroxypropylcellulose, 5 ml/animal) replaces at 1600 hours the calcium intake that is lacking by food deprivation. At the end of the test, the animals are killed by decapitation and exsanguinated to determine the serum-calcium values. For the primary screen test in vivo, an individual standard dose (200 μg/kg) is tested. For selected substances, the result is supported by establishing a dose-effect relation.
A hypercalcemic action is shown in serum-calcium level values that are higher than in the control.
The significance of differences between substance groups and controls and between test substance and reference substance are supported with suitable statistical processes.

calcitriol receptor = biological target: T1, calcitriol receptor (Sus scrofa, UniProt A3RGC1); test: calcitriol-receptor test (competition with 3H-calcitriol); conditions: quotient of concentrations of test substance and calcitriol for 50% competition, receptor protein from intestines of juvenile pigs
T1 sequence (A3RGC1 1-427): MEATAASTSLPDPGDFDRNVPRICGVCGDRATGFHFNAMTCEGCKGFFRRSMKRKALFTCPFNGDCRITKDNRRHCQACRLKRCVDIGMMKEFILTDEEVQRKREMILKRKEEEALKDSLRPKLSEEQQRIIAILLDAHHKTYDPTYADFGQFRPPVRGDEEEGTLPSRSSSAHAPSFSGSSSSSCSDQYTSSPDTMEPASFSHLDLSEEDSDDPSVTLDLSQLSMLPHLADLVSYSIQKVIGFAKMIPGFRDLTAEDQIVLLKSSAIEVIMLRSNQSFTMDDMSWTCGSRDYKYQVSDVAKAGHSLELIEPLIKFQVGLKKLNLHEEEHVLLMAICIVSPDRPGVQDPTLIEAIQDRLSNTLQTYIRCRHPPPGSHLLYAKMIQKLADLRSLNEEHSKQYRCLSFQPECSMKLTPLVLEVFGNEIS
Description: The vitamin D activity of the substances according to the invention is determined with the aid of the calcitriol-receptor test. It is carried out with use of a specific receptor protein from the intestines of juvenile pigs.
Then, the samples are centrifuged at 10,000×g for 5 minutes at 4° C. The supernatant is decanted and measured in a β-counter after 1 hour of equilibration in Picofluor 15™.
The competition curves that are obtained with various concentrations of test substance as well as of reference substance (unlabeled calcitriol) at constant concentration of the reference substance (^3H-calcitriol) are placed in relation to one another and a competition factor (KF) is determined.
It is defined as a quotient of the concentrations of the respective test substance and the reference substance, which are necessary for 50% competition: [formula]

HL 60 cells [1] = test: differentiation induction of HL 60 cells to macrophages (NBT reduction); assay type: cell-based, human; conditions: DR = test substance dose/calcitriol dose for comparable semi-maximum effects; 96 hours incubation
Description: It is known in the literature (Mangelsdorf, D. J. et al., J. Cell. Biol. 98: 391-398 (1984)), that the treatment of human leukemia cells (promyelocyte cell line HL 60) in vitro with calcitriol induces the differentiation of cells to macrophages.
HL 60 cells are cultivated in tissue culture medium (RPMI 10% fetal calf serum) at 37° C. in an atmosphere of 5% CO2 in air.
For substance testing, the cells are centrifuged off, and 2.0×10^5 cells/ml in phenol red-free tissue culture medium is taken up. The test substances are dissolved in ethanol and diluted with tissue culture medium without phenol red to the desired concentration. The dilution stages are mixed with the cell suspension at a ratio of 1:10, and 100 μl each of this cell suspension that is mixed with substance is pipetted into an indentation of a 96-hole plate. For control, a cell suspension is mixed analogously with the solvent.
After incubation for 96 hours at 37° C. in 5% CO2 in air, 100 μl of an NBT-TPA solution (nitro blue tetrazolium (NBT), final concentration in the batch of 1 mg/ml, tetradecanoyl phorbolmyristate-13-acetate (TPA), final concentration in the batch of 2×10^−7 mol/l) is pipetted into each indentation of the 96-hole plate in the cell suspension.
By incubation for 2 hours at 37° C. and 5% CO2 in air, NBT is reduced to insoluble formazan because of the intracellular oxygen radical release, stimulated by TPA, in the cells that are differentiated to macrophages.
To complete the reaction, the indentations of the 96-hole plate are suctioned off, and the cells are affixed to the bottom of the plate by adding methanol and dried after affixing. To dissolve the intracellular formazan crystals that are formed, 100 μl of potassium hydroxide (2 mol/l) and 100 μl of dimethyl sulfoxide are pipetted into-each indentation and ultrasonically treated for 1 minute. The concentration of formazan is measured by spectrophotometry at 650 nm.
As a yardstick for the differentiation induction of HL 60 cells to macrophages, the concentration of formed formazan applies.

HL 60 cells [2] = test: antagonism of the action of calcitriol in HL 60 cells; assay type: cell-based, human

## C=C1/C(=C\C=C2/CCC[C@]3(C)[C@@H]([C@H](C)/C=C/[C@@H](O)C4(C(=O)C#CCCC)CC4)CC[C@@H]23)C[C@@H](O)C[C@@H]1O [Compound 19b, (5Z,7E,22E)-(1S,3R,24R)-25-(1-Oxo-2-hexinyl)-26,27-cyclo-9,10-secocholesta-5,7,10(19),22-tetraene-1,3,24-triol]
Healthy male rats
  dose ratio for hypercalcemia: > 300
Calcitriol receptor
  Competition Factor KF for Receptor Bonding: 2
HL 60 cells [1]
  Dose Ratio for Differentiation Induction in HL 60 Cells: 1.5

## C=C1/C(=C\C=C2/CCC[C@]3(C)[C@@H](C(C)(C)/C=C/[C@H](O)C4(C(=O)CCCCCCC)CC4)CC[C@@H]23)C[C@@H](O)C[C@@H]1O [Compound 43a, (5Z,7E,22E)-(1S,3R,24S)-20-methyl-25-(1-oxooctyl)-26,27-cyclo-9,10-secocholesta-5,7,10(19),22-tetraene-1,3,24-triol]
Calcitriol receptor
  Competition Factor KF for Receptor Bonding: 48
HL 60 cells [1]
  Dose Ratio for Differentiation Induction in HL 60 Cells: >1000
HL 60 cells [2]
  antagonism of the action of calcitriol in HL 60 cells: antagonize the action of calcitriol

## CCCCCCC(=O)C1([C@@H](O)/C=C/[C@@H](C)[C@H]2CC[C@H]3/C(=C/C=C4C[C@@H](O)C[C@H](O)C4)CCC[C@]23C)CC1 [Compound 64a, (7E,22E)-(1R,3R,24S)-25-(1-Oxoheptyl)-26,27-cyclo-19-nor-9,10-secocholesta-5,7,22-triene-1,3,24-triol]
Calcitriol receptor
  Competition Factor KF for Receptor Bonding: 3.5
HL 60 cells [1]
  Dose Ratio for Differentiation Induction in HL 60 Cells: 120
HL 60 cells [2]
  antagonism of the action of calcitriol in HL 60 cells: antagonize the action of calcitriol

## C=C1/C(=C\C=C2/CCC[C@]3(C)[C@@H]([C@H](C)/C=C/[C@@H](O)C4(C(=O)C(C)(C)C)CC4)CC[C@@H]23)C[C@@H](O)C[C@@H]1O [Compound 15b, (5Z,7E,22E)-(1S,3R,24R)-25-(2,2-Dimethyl-1-oxopropyl)-26,27-cyclo-9,10-secocholesta-5,7,10(19),22-tetraene-1,3,24-triol]
Healthy male rats
  dose ratio for hypercalcemia: 300
Calcitriol receptor
  Competition Factor KF for Receptor Bonding: 6
HL 60 cells [1]
  Dose Ratio for Differentiation Induction in HL 60 Cells: 1.1

## C=C1/C(=C\C=C2/CCC[C@]3(C)[C@@H]([C@H](C)CCCC(C)(C)O)CC[C@@H]23)C[C@@H](O)C[C@@H]1O [Calcitriol, 1α,25-dihydroxy vitamin D3, reference compound]
Healthy male rats
  dose ratio for hypercalcemia: 1
HL 60 cells [1]
  Dose Ratio for Differentiation Induction in HL 60 Cells: 1

## C=C1/C(=C\C=C2/CCC[C@]3(C)[C@@H]([C@H](C)/C=C/[C@@H](O)C4(C(=O)CCC)CC4)CC[C@@H]23)C[C@@H](O)C[C@@H]1O [Compound 8b, (5Z,7E,22E)-(1S,3R,24R)-25-(1-oxobutyl)-26,27-cyclo-9,10-secocholesta-5,7,10(19),22-tetraene-1,3,24-triol]
Healthy male rats
  dose ratio for hypercalcemia: 100
Calcitriol receptor
  Competition Factor KF for Receptor Bonding: 2
HL 60 cells [1]
  Dose Ratio for Differentiation Induction in HL 60 Cells: 0.9

## C=C1C(=CC=C2CCCC3(C)C2CCC3C(C)C=CC(O)C2(C(C)=O)CC2)CC(O)CC1O [Compound 7b, (5Z,7E,22E)-(1S,3R,24R)-25-Acetyl-26,27-cyclo-9,10-secocholesta-5,7,10(19),22-tetraene-1,3,24-triol]
Healthy male rats
  dose ratio for hypercalcemia: 300
Calcitriol receptor
  Competition Factor KF for Receptor Bonding: 1
HL 60 cells [1]
  Dose Ratio for Differentiation Induction in HL 60 Cells: 0.5
